Data published in US20260166039A1 (SCHRÖDINGER, INC., priority 2022, published 2026).
Like-named read-outs stand apart in the source and are kept apart here.

Tests used:
[1] = target: T1, Wee1 kinase domain (Homo sapiens, UniProt P30291); assay: Wee1 Kinase Biochemical Assay (ADP-Glo); settings: 15 uM ATP
T1 construct: Wee1 kinase domain was purchased from Carna (catalog #05-177); purchased Carna 05-177
In short: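 ADP-Glo luminescence readout of ADP produced by 1 nM kinase domain phosphorylating Poly(Lys,Tyr 4:1) (2 ng/mL) at 15 uM ATP. Reaction ran 4 h, 25 °C, in Tris/MgCl2 buffer with BSA and DTT. Inhibition scaled between DMSO (high) and saturating control inhibitor (low).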

[2] = system: phosphorylation of Cdc2 Y15 (Wee1 substrate) in A427 cells; assay: Phosphorylated Cdc2 MSD Electrochemiluminescence Assay; type: cell-based; settings: Homo sapiens
In short: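 Read-out: percent residual phospho-Cdc2 Y15 relative to DMSO and positive-control Wee1 inhibitor, measured by MSD electrochemiluminescence capture/detection antibody assay in cell lysates. A427 cells received duplicate 3-fold compound dilution series 20 h post-seeding, with 6 h total incubation at 37 °C.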

[3] = class symbols, 1 nM Wee1 enzyme, 4 hours at 25° C.
[4] = A-427, class symbols, read-out: A427 pCDC2 MSD IC50

T1 sequence (P30291 299-569 limits assumed): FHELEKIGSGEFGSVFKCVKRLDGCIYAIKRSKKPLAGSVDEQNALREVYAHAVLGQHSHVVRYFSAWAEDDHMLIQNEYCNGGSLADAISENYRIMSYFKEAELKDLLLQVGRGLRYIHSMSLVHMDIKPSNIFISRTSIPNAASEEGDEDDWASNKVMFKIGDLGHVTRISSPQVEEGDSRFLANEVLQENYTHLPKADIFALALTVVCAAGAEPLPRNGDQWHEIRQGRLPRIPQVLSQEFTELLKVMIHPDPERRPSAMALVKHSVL

| Compound | IC50 ([1]; Wee1 kinase domain, ADP-Glo) [nM] | IC50 ([2]; A-427, pCDC2 MSD) [nM] | IC50 [1, 3] [nM] | IC50 [2, 4] [nM] |
| --- | --- | --- | --- | --- |
| CC1(C)C[C@H]2N(c3cccc(N=S(C)(C)=O)n3)c3nc(Nc4ccc(O[C@@H]5CCNC5)cc4)ncc3[C@@]2(C)CO1 (single isomer, unassigned) [Example 155] | < 10 | 100 to 1000 |  |  |
| CNCc1cccc(N2c3nc(Nc4ccc(N5C[C@H]6C[C@@H]5CO6)cc4)ncc3[C@@]3(C)COC(C)(C)C[C@@H]23)n1 (single isomer, unassigned) [Example 44] | < 10 | < 100 |  |  |
| Cc1cc(Nc2ncc3c(n2)N(c2cccc(N4C(=O)OC[C@@H]4C)n2)[C@@H]2CC(C)(C)OC[C@]32C)ccc1O[C@H]1CCNC1 (single isomer, unassigned) [Example 339] | < 10 | 100 to 1000 |  |  |
| Cc1ncc(Nc2ncc3c(n2)N(c2cccc(N=S(C)(C)=O)n2)[C@@H]2CC(C)(C)OC[C@]32C)cn1 (single isomer, unassigned) [Example 373] | < 10 | 100 to 1000 |  |  |
| CN1CCN(c2ccc(Nc3ncc4c(n3)N(c3nccs3)[C@@H]3CC(C)(C)OC[C@]43C)cc2)CC1 (single isomer, unassigned) [Example 726] |  |  | < 10 | 100 to 1000 |
| CC1(C)C[C@H]2N(c3cccc(N4CCCC4=O)n3)c3nc(Nc4ccc(O[C@@H]5CCNC5)cc4)ncc3[C@@]2(C)CO1 [Example 616, 1-(6-((4bR,8aR)-4b,7,7-trimethyl-2-((4-(((R)-pyrrolidin-3-yl)oxy)phenyl)amino)-4b,7,8,8a-tetrahydropyrano[3′,4′:4,5]pyrrolo[2,3-d]pyrimidin-9(5H)-yl)pyridin-2-yl)pyrrolidin-2-one] |  |  | < 10 | 100 to 1000 |
| CN1CCN(c2ccc(Nc3ncc4c(n3)N(c3cccc(C(C)(C)O)n3)[C@@H]3CC(C)(C)OC[C@]43C)cc2)CC1 (single isomer, unassigned) [Example 4] | < 10 | 100 to 1000 |  |  |
| C[C@H]1COC(=O)N1c1cccc(N2c3nc(Nc4cnn(C5CCNCC5)c4)ncc3[C@@]3(C)COC(C)(C)C[C@@H]23)n1 (single isomer, unassigned) [Example 255] | < 10 | 100 to 1000 |  |  |
| C[C@H]1COC(=O)N1c1cccc(N2c3nc(Nc4ccn(C5CCOCC5)c(=O)c4)ncc3[C@@]3(C)COC(C)(C)C[C@@H]23)n1 (single isomer, unassigned) [Example 781] |  |  | < 10 | 100 to 1000 |
| C[C@H]1COC(=O)N1c1cccc(N2c3nc(Nc4ccc(N5CCNCC5)cc4)ncc3[C@@]3(C)COC(C)(C)C[C@@H]23)n1 (single isomer, unassigned) [Example 260] | < 10 | 100 to 1000 |  |  |
| Cn1cc([C@@H]2C[C@H]2C(=O)Nc2ncc3c(n2)N(c2cccc(N=S(C)(C)=O)n2)[C@@H]2CC(C)(C)OC[C@]32C)cn1 (single isomer, unassigned) [Example 403] |  |  | < 10 | 100 to 1000 |
| C[C@H]1COC(=O)N1c1cccc(N2c3nc(Nc4ccc(N5C[C@@H]6C[C@H]5CN6C)c(F)c4)ncc3[C@@]3(C)COC(C)(C)C[C@@H]23)n1 (single isomer, unassigned) [Example 293] | < 10 | 100 to 1000 |  |  |
| CN1C[C@@H]2CN(c3ccc(Nc4ncc5c(n4)N(c4cccc(N6CCOC6=O)n4)[C@@H]4CC(C)(C)OC[C@]54C)cc3)C[C@@H]2C1 [Example 692, 3-(6-((4bR,8aR)-4b,7,7-trimethyl-2-((4-((3aR,6aS)-5-methylhexahydropyrrolo[3,4-c]pyrrol-2(1H)-yl)phenyl)amino)-4b,7,8,8a-tetrahydropyrano[3′,4′:4,5]pyrrolo[2,3-d]pyrimidin-9(5H)-yl)pyridin-2-yl)oxazolidin-2-one] |  |  | < 10 | 100 to 1000 |
| C[C@H]1CN(c2cccc(N3c4nc(Nc5ccc(N6CCN(C)CC6)cc5)ncc4[C@@]4(C)COC(C)(C)C[C@@H]34)n2)C(=O)O1 (single isomer, unassigned) [Example 599] |  |  | < 10 | 100 to 1000 |
| CC1(C)C[C@H]2N(c3cccc(N=S(C)(C)=O)n3)c3nc(Nc4ccc(N5CC6(CNC6)C5)cc4)ncc3[C@@]2(C)CO1 (single isomer, unassigned) [Example 494] |  |  | < 10 | 100 to 1000 |
| COc1ccc(Nc2ncc3c(n2)N(c2cccc(N=S(C)(C)=O)n2)[C@@H]2CC(C)(C)OC[C@]32C)nn1 (single isomer, unassigned) [Example 372] | < 10 | 100 to 1000 |  |  |

| Compound | IC50 ([1]; Wee1 kinase domain, ADP-Glo) [nM] | IC50 ([2]; A-427, pCDC2 MSD) [nM] | IC50 [1, 3] [nM] | IC50 [2, 4] [nM] |
| --- | --- | --- | --- | --- |
| CC1(C)C[C@H]2N(c3cccc(N=S(C)(C)=O)n3)c3nc(Nc4ccc(C(F)F)nn4)ncc3[C@@]2(C)CO1 (single isomer, unassigned) [Example 377] | < 10 | 1000 to 10000 |  |  |
| CN1CCCN(c2ccc(Nc3ncc4c(n3)N(c3cccc(N=S(C)(C)=O)n3)[C@@H]3CC(C)(C)OC[C@]43C)cc2)CC1 (single isomer, unassigned) [Example 501] |  |  | < 10 | < 100 |
| CN(C)C(=O)c1ccc(Nc2ncc3c(n2)N(c2cccc(N=S(C)(C)=O)n2)[C@@H]2CC(C)(C)OC[C@]32C)cc1 (single isomer, unassigned) [Example 141] | < 10 | < 100 |  |  |
| C[C@H]1COC(=O)N1c1cccc(N2c3nc(Nc4ccc([C@@]5(C)CCN(C)C5)cc4)ncc3[C@@]3(C)COC(C)(C)C[C@@H]23)n1 (single isomer, unassigned) [Example 349] | < 10 | 100 to 1000 |  |  |
| CNCc1cccc(N2c3nc(Nc4ccc(N5CCOC[C@@H]5C)cc4)ncc3[C@@]3(C)COC(C)(C)C[C@@H]23)n1 (single isomer, unassigned) [Example 476] |  |  | < 10 | 100 to 1000 |
| CNCc1cccc(N2c3nc(Nc4ccc([C@H]5CC(=O)N(C)C5)cc4)ncc3[C@@]3(C)COC(C)(C)C[C@@H]23)n1 (single isomer, unassigned) [Example 68] | < 10 | 100 to 1000 |  |  |
| C[C@H]1COC(=O)N1c1cccc(N2c3nc(Nc4ccc(C5CCN(C)CC5)nc4)ncc3[C@@]3(C)COC(C)(C)C[C@@H]23)n1 (single isomer, unassigned) [Example 297] | < 10 | 100 to 1000 |  |  |
| CN1CC[C@@H]2CN(c3ccc(Nc4ncc5c(n4)N(c4cccc(N6CCOC6=O)n4)[C@@H]4CC(C)(C)OC[C@]54C)cc3)C[C@@H]21 [Example 705, 3-(6-((4bR,8aR)-4b,7,7-trimethyl-2-((4-((3aR,6aR)-1-methylhexahydropyrrolo[3,4-b]pyrrol-5(1H)-yl)phenyl)amino)-4b,7,8,8a-tetrahydropyrano[3′,4′:4,5]pyrrolo[2,3-d]pyrimidin-9(5H)-yl)pyridin-2-yl)oxazolidin-2-one] |  |  | < 10 | 100 to 1000 |
| CN1C[C@@H]2C[C@H]1CN2c1ccc(Nc2ncc3c(n2)N(c2cccc(P(C)(C)=O)n2)[C@@H]2CC(C)(C)OC[C@]32C)cc1 [Example 777, dimethyl(6-((4bR,8aR)-4b,7,7-trimethyl-2-((4-((1S,4S)-5-methyl-2,5-diazabicyclo[2.2.1]heptan-2-yl)phenyl)amino)-4b,7,8,8a-tetrahydropyrano[3′,4′:4,5]pyrrolo[2,3-d]pyrimidin-9(5H)-yl)pyridin-2-yl)phosphine oxide] |  |  | < 10 | 1000 to 10000 |
| CC1(C)C[C@H]2N(c3cccc(N=S(C)(C)=O)n3)c3nc(Nc4ccc(N5C[C@H]6C[C@@H]5CO6)cc4)ncc3[C@@]2(C)CO1 (single isomer, unassigned) [Example 498] |  |  | < 10 | 100 to 1000 |
| C[C@H]1COC(=O)N1c1cccc(N2c3nc(Nc4ccc([C@H]5CCN(C)C5)cc4)ncc3[C@@]3(C)COC(C)(C)C[C@@H]23)n1 (single isomer, unassigned) [Example 306] | < 10 | 100 to 1000 |  |  |
| Cc1cc(Nc2ncc3c(n2)N(c2cccc(N4C(=O)OC[C@@H]4C)n2)[C@@H]2CC(C)(C)OC[C@]32C)ccc1C1CCN(C)CC1 (single isomer, unassigned) [Example 238] | < 10 | 100 to 1000 |  |  |
| Cc1cc(Nc2ncc3c(n2)N(c2cccc(N4C(=O)OC[C@@H]4C)n2)[C@@H]2CC(C)(C)OC[C@]32C)ccc1N1C[C@H]2C[C@@H]1CN2C (single isomer, unassigned) [Example 289] | < 10 | 100 to 1000 |  |  |
| CN1CC[C@@H](c2ccc(Nc3ncc4c(n3)N(c3cccc(N5CCCC5=O)n3)[C@@H]3CC(C)(C)OC[C@]43C)cc2)C1 [Example 642, 1-(6-((4bR,8aR)-4b,7,7-trimethyl-2-((4-((S)-1-methylpyrrolidin-3-yl)phenyl)amino)-46,7,8,8a-tetrahydropyrano[3′,4′:4,5]pyrrolo[2,3-d]pyrimidin-9(5H)-yl)pyridin-2-yl)pyrrolidin-2-one] |  |  | < 10 | 100 to 1000 |
| CN[C@@H](C)c1cccc(N2c3nc(Nc4ccn(C5CCOCC5)c(=O)c4)ncc3[C@@]3(C)COC(C)(C)C[C@@H]23)n1 (single isomer, unassigned) [Example 390] | < 10 | 100 to 1000 |  |  |
| CN1C[C@H]2C[C@@H]1CN2c1ccc(Nc2ncc3c(n2)N(c2cccc(P(C)(C)=O)n2)[C@@H]2CC(C)(C)OC[C@]32C)cc1 [Example 778, dimethyl(6-((4bR,8aR)-4b,7,7-trimethyl-2-((4-((1R,4R)-5-methyl-2,5-diazabicyclo[2.2.1]heptan-2-yl)phenyl)amino)-4b,7,8,8a-tetrahydropyrano[3′,4′:4,5]pyrrolo[2,3-d]pyrimidin-9(5H)-yl)pyridin-2-yl)phosphine oxide] |  |  | < 10 | 100 to 1000 |
